In US20230301300A1, “HERBICIDAL COMPOSITIONS” (SYNGENTA CROP PROTECTION AG, priority 2020, published 2023):

Columns and labels:
Type in all cases: in vivo
[1] = system: Lolium perenne (LOLPE); assay: B1 Post-Emergence Efficacy - Test 1; details: 1000 g/ha, after 13 days, five point scale
Method: (§1) Seeds of a variety of test species are sown in standard soil in pots:— Solanum nigrum (SOLNI), Amaranthus retoflexus (AMARE), Setaria faberi (SETFA), Alopecurus myosuroides (ALOMY), Echinochloa crus-galli (ECHCG), Ipomoea hederacea (IPOHE), Lolium perenne (LOLPE). After 8 days cultivation (post-emergence) under controlled conditions in a glasshouse (at 24/16° C., day/night; 14 hours light; 65% humidity), the plants are sprayed with an aqueous spray solution derived from the formulation of the technical active ingredient in acetone/water (50:50) solution containing 0.5% Tween 20 (polyoxyethylene sorbitan monolaurate, CAS RN 9005-64-5). Compounds are applied at 1000 g/ha. The test plants are then grown in a glasshouse under controlled conditions in a glasshouse (at 24/16° C., day/night; 14 hours light; 65% humidity) and watered twice daily. After 13 days, the test is evaluated for the percentage damage caused to the plant. The biological activities are assessed on a five point scale (5=80-100%; 4=60-79%; 3=40-59%; 2=20-39%; 1=0-19%). A blank value in the table is indicative that the compound was not tested on that species.

[2] = system: Echinochloa crus-galli (ECHCG); assay: B1 Post-Emergence Efficacy - Test 1; details: 1000 g/ha, after 13 days, five point scale
Method: as §1

[3] = system: Amaranthus retoflexus (AMARE); assay: B1 Post-Emergence Efficacy - Test 1; details: 1000 g/ha, after 13 days, five point scale
Method: as §1

[4] = system: Ipomoea hederacea (IPOHE); assay: B1 Post-Emergence Efficacy - Test 1; details: 1000 g/ha, after 13 days, five point scale
Method: as §1

[5] = system: Solanum nigrum (SOLNI); assay: B1 Post-Emergence Efficacy - Test 1; details: 1000 g/ha, after 13 days, five point scale
Method: as §1

[6] = system: Setaria faberi (SETFA); assay: B1 Post-Emergence Efficacy - Test 1; details: 1000 g/ha, after 13 days, five point scale
Method: as §1

[7] = system: Zea mays (ZEAMX); assay: B3 Herbicidal Efficacy of Compounds of Formula (II), pre-emergence; details: 312 h, application pre-emergence, after 13 days, 100=total damage, 0=no damage, read-out: percentage phytotoxicity to the plant, ZEAMX
Method: (§2) Seeds of a variety of test species [Ipomoea hederacea (IPOHE); Zea mays (ZEAMX); Echinochloa crus-galli (ECHCG); Setaria faberi (SETFA); Abutilon theophrasti (ABUTH); Amaranthus retroflexus (AMARE)] were sown in standard sterilised soil in pots. After cultivation for one day (pre-emergence) or after 8 days cultivation (post-emergence) under controlled conditions in a glasshouse (at 24/16° C., day/night; 14 hours light; 65% humidity), the plants were sprayed with an aqueous spray solution derived from the formulation of the technical active ingredient in acetone/water (50:50) solution containing 0.5% Tween 20 (polyoxyethelyene sorbitan monolaurate, CAS RN 9005-64-5), subsequently diluted in water, and sprayed to give the stated application rate. The test plants were then grown under controlled conditions in a glasshouse (at 24/16° C., day/night; 14 hours light; 65% humidity) and watered twice daily. After 13 days for pre and post-emergence, the test was evaluated visually for percentage phytotoxicity to the plant (where 100=total damage to plant; 0=no damage to plant).

[8] = system: Echinochloa crus-galli (ECHCG); assay: as above; details: 312 h, application pre-emergence, after 13 days, 100=total damage, 0=no damage, read-out: percentage phytotoxicity to the plant, ECHCG
Method: as §2

[9] = system: Abutilon theophrasti (ABUTH); assay: as above; details: 312 h, application pre-emergence, after 13 days, 100=total damage, 0=no damage, read-out: percentage phytotoxicity to the plant, ABUTH
Method: as §2

[10] = system: Ipomoea hederacea (IPOHE); assay: as above; details: 312 h, application pre-emergence, after 13 days, 100=total damage, 0=no damage, read-out: percentage phytotoxicity to the plant, IPOHE
Method: as §2

[11] = system: Amaranthus retroflexus (AMARE); assay: as above; details: 312 h, application pre-emergence, after 13 days, 100=total damage, 0=no damage, read-out: percentage phytotoxicity to the plant, AMARE
Method: as §2

[12] = system: Setaria faberi (SETFA); assay: as above; details: 312 h, application pre-emergence, after 13 days, 100=total damage, 0=no damage, read-out: percentage phytotoxicity to the plant, SETFA
Method: as §2

[13] = system: Zea mays (ZEAMX); assay: B3 Herbicidal Efficacy of Compounds of Formula (II), post-emergence; details: 312 h, application post-emergence, after 13 days, 100=total damage, 0=no damage, read-out: percentage phytotoxicity to the plant, ZEAMX
Method: as §2

[14] = system: Echinochloa crus-galli (ECHCG); assay: as above; details: 312 h, application post-emergence, after 13 days, 100=total damage, 0=no damage, read-out: percentage phytotoxicity to the plant, ECHCG
Method: as §2

[15] = system: Abutilon theophrasti (ABUTH); assay: as above; details: 312 h, application post-emergence, after 13 days, 100=total damage, 0=no damage, read-out: percentage phytotoxicity to the plant, ABUTH
Method: as §2

[16] = system: Ipomoea hederacea (IPOHE); assay: as above; details: 312 h, application post-emergence, after 13 days, 100=total damage, 0=no damage, read-out: percentage phytotoxicity to the plant, IPOHE
Method: as §2

[17] = system: Amaranthus retroflexus (AMARE); assay: as above; details: 312 h, application post-emergence, after 13 days, 100=total damage, 0=no damage, read-out: percentage phytotoxicity to the plant, AMARE
Method: as §2

[18] = system: Setaria faberi (SETFA); assay: as above; details: 312 h, application post-emergence, after 13 days, 100=total damage, 0=no damage, read-out: percentage phytotoxicity to the plant, SETFA
Method: as §2

Cc1nn(C)c(=O)c(-c2c(F)ccc(Cl)c2CCc2ccccc2)c1O [Compound 1.001, 4-(3-chloro-6-fluoro-2-phenethyl-phenyl)-5-hydroxy-2,6-dimethyl-pyridazin-3-one]
percentage damage caused to the plant, LOLPE [1]: 5 (5=80-100%) | percentage damage caused to the plant, ECHCG [2]: 5 (5=80-100%) | percentage damage caused to the plant, AMARE [3]: 5 (5=80-100%) | percentage damage caused to the plant, IPOHE [4]: 5 (5=80-100%) | percentage damage caused to the plant, SOLNI [5]: 5 (5=80-100%) | percentage damage caused to the plant, SETFA [6]: 5 (5=80-100%)

Cc1nn(C)c(=O)c(-c2c(F)ccc(Cl)c2/C=C/c2ccccc2)c1O [Compound 1.002, 4-[3-chloro-6-fluoro-2-[(E)-styryl]phenyl]-5-hydroxy-2,6-dimethyl-pyridazin-3-one]
percentage damage caused to the plant, LOLPE [1]: 4 (4=60-79%) | percentage damage caused to the plant, ECHCG [2]: 4 (4=60-79%) | percentage damage caused to the plant, AMARE [3]: 4 (4=60-79%) | percentage damage caused to the plant, IPOHE [4]: 5 (5=80-100%) | percentage damage caused to the plant, SOLNI [5]: 5 (5=80-100%) | percentage damage caused to the plant, SETFA [6]: 3 (3=40-59%)

Cc1nn(C)c(=O)c(-c2c(F)ccc(Cl)c2CCc2ccc(Cl)cc2)c1O [Compound 1.012, 4-[3-chloro-2-[2-(4-chlorophenyl)ethyl]-6-fluoro-phenyl]-5-hydroxy-2,6-dimethyl-pyridazin-3-one]
percentage damage caused to the plant, LOLPE [1]: 5 (5=80-100%) | percentage damage caused to the plant, ECHCG [2]: 5 (5=80-100%) | percentage damage caused to the plant, AMARE [3]: 5 (5=80-100%) | percentage damage caused to the plant, IPOHE [4]: 5 (5=80-100%) | percentage damage caused to the plant, SOLNI [5]: 5 (5=80-100%) | percentage damage caused to the plant, SETFA [6]: 5 (5=80-100%)

Cc1nn(C)c(=O)c(-c2c(F)ccc(Cl)c2CCc2ccc(C(F)(F)F)cc2)c1O [Compound 1.018, 4-[3-chloro-6-fluoro-2-[2-[4-(trifluoromethyl)phenyl]ethyl]phenyl]-5-hydroxy-2,6-dimethyl-pyridazin-3-one]
percentage damage caused to the plant, LOLPE [1]: 5 (5=80-100%) | percentage damage caused to the plant, ECHCG [2]: 5 (5=80-100%) | percentage damage caused to the plant, AMARE [3]: 5 (5=80-100%) | percentage damage caused to the plant, IPOHE [4]: 5 (5=80-100%) | percentage damage caused to the plant, SOLNI [5]: 5 (5=80-100%) | percentage damage caused to the plant, SETFA [6]: 5 (5=80-100%)

Cc1nn(C)c(=O)c(-c2c(F)ccc(Cl)c2CCc2cccnc2)c1O [Compound 1.054, 4-[3-chloro-6-fluoro-2-[2-(3-pyridyl)ethyl]phenyl]-5-hydroxy-2,6-dimethyl-pyridazin-3-one]
percentage damage caused to the plant, LOLPE [1]: 5 (5=80-100%) | percentage damage caused to the plant, ECHCG [2]: 5 (5=80-100%) | percentage damage caused to the plant, AMARE [3]: 5 (5=80-100%) | percentage damage caused to the plant, IPOHE [4]: 5 (5=80-100%) | percentage damage caused to the plant, SOLNI [5]: 5 (5=80-100%) | percentage damage caused to the plant, SETFA [6]: 5 (5=80-100%)

Cc1nn(C)c(=O)c(-c2c(F)ccc(Cl)c2CCc2ccc(F)c(F)c2)c1O [Compound 1.060, 4-[3-chloro-2-[2-(3,4-difluorophenyl)ethyl]-6-fluoro-phenyl]-5-hydroxy-2,6-dimethyl-pyridazin-3-one]
percentage damage caused to the plant, LOLPE [1]: 5 (5=80-100%) | percentage damage caused to the plant, ECHCG [2]: 5 (5=80-100%) | percentage damage caused to the plant, AMARE [3]: 5 (5=80-100%) | percentage damage caused to the plant, IPOHE [4]: 5 (5=80-100%) | percentage damage caused to the plant, SOLNI [5]: 5 (5=80-100%) | percentage damage caused to the plant, SETFA [6]: 5 (5=80-100%)

Cc1nn(C)c(=O)c(-c2c(F)ccc(Cl)c2CCc2ccc(C(F)(F)F)cc2)c1OC(=O)C(C)C [Compound 1.095, [5-[3-chloro-6-fluoro-2-[2-[4-(trifluoromethyl)phenyl]ethyl]phenyl]-1,3-dimethyl-6-oxo-pyridazin-4-yl] 2-methylpropanoate]
percentage damage caused to the plant, LOLPE [1]: 5 (5=80-100%) | percentage damage caused to the plant, ECHCG [2]: 5 (5=80-100%) | percentage damage caused to the plant, AMARE [3]: 5 (5=80-100%) | percentage damage caused to the plant, IPOHE [4]: 5 (5=80-100%) | percentage damage caused to the plant, SOLNI [5]: 5 (5=80-100%)

Cc1ccc(CCc2c(Cl)ccc(F)c2-c2c(OC(=O)C(C)C)c(C)nn(C)c2=O)cc1 [Compound 1.149, [5-[3-chloro-6-fluoro-2-[2-(p-tolyl)ethyl]phenyl]-1,3-dimethyl-6-oxo-pyridazin-4-yl] 2-methylpropanoate]
percentage damage caused to the plant, LOLPE [1]: 5 (5=80-100%) | percentage damage caused to the plant, ECHCG [2]: 5 (5=80-100%) | percentage damage caused to the plant, AMARE [3]: 5 (5=80-100%) | percentage damage caused to the plant, IPOHE [4]: 5 (5=80-100%) | percentage damage caused to the plant, SOLNI [5]: 5 (5=80-100%) | percentage damage caused to the plant, SETFA [6]: 5 (5=80-100%)

CN1C[C@H](c2cc(C(F)(F)F)n(C)n2)[C@@H](C(=O)Nc2cccc(F)c2C(C)(F)F)C1=O [Compound 2.12, (3S,4R)-N-[2-(1,1-difluoroethyl)-3-fluoro-phenyl]-1-methyl-4-[1-methyl-5-(trifluoromethyl)pyrazol-3-yl]-2-oxo-pyrrolidine-3-carboxamide]
plant injury at 250 g/ha [7]: 90% | pest or weed control at 250 g/ha [8]: 90% | pest or weed control at 250 g/ha [9]: 0% | pest or weed control at 250 g/ha [10]: 70% | pest or weed control at 250 g/ha [11]: 0% | pest or weed control at 250 g/ha [12]: 90% | percent crop injury (phytotoxicity to maize) at 250 g/ha [13]: 80% | pest or weed control at 250 g/ha [14]: 90% | pest or weed control at 250 g/ha [15]: 0% | pest or weed control at 250 g/ha [16]: 50% | pest or weed control at 250 g/ha [17]: 0% | pest or weed control at 250 g/ha [18]: 90%
